Measured values as given in patent US7569239B2, “Antioxidative compositions” (priority 2002, dated 2009).

Test system: colitis (colon growth caused by inflammation)
Assay: DNBS-induced colitis in rats (animal model for inflammatory bowel disease)
Type: in vivo, male Spregue-Dawley rats
Conditions: oral once a day for 7 days, rat
Experimental: In one experiment, male Spregue-Dawley rats (150-180 gram; Charles River Lab, Boston, Mass.) were kept in filter-topped cages with free access to food and water, and housed in a positive pressure room with controlled temperature and photoperiod during studies. As an animal model for inflammatory bowel disease (e.g., Crohn's disease), colitis (colon growth caused by inflammation) was induced by intracolonic instillation of 25 mg of a hapten reagent, 2,4-dinitrobenzenesulfonic acid (TCI, Japan), in 0.5 ml of 30% vol/vol ethanol. Each rat was first anaesthetized with […]/ethanol was injected into the colon, 8 cm proximal to the anus, with a PE 50 cannula. 2 ml of air was then gently injected through the cannula to ensure that the solution remained in the colon. The rat was then kept in a vertical position for 30 second and returned to its cage. By using the same procedures, rats in the blank-control group received 0.5 ml of 30% ethanol. See Hogaboam, et al., Eur. J. Pharmacol. (1996) 309:261-269. […] Each daily dose contained 3.125 mg to 25 mg of quercetin aglycon for each kilogram of body weight. The weight of each rat was monitored every 24 hours. […] Before removal of each colon, the presence or absence of adhesions between the colon and other organs were recorded upon opening the abdominal cavity. The colon-to-body weight ratio was then calculated for each animal. […]

O=c1c(O)c(-c2ccc(O)c(O)c2)oc2cc(O)cc(O)c12 [quercetin aglycon]
inhibition of colon growth (colon-to-body weight ratio) (3.125 mg/kg quercetin aglycon): failed to do so | inhibition of colon growth (colon-to-body weight ratio) (25 mg/kg quercetin aglycon): inhibited colon growth
